# Key:
# [1] = Octanol/water partition coefficient (logP) of labeled complexes; type: physicochemical; conditions: 1-octanol/water, triplicates
# Experimental: (§1) Subsequently, the octanol/water partition coefficient (logP) of the labeled complexes was determined to be −3.89 for [^68Ga]Ga(DO3AM-NI) and −2.59 for [^44Sc]Sc(DO3AM-NI). […] To assess the labeled compounds’ stability, the chelates were mixed with the solution of mouse plasma, Na2H2EDTA and oxalic acid, respectively. Aliquots were then taken at different time points (0, 60, 120 and 240 min) and injected into the radio-HPLC column, and the chromatograms were analyzed. After 240 min, the RCP of the samples was above 93% in all three cases.
# A 10 µL volume of [^68Ga]Ga(DO3AM-NI) and [^44Sc]Sc(DO3AM-NI) solution (~5 MBq) was mixed with 500 µL of 1-octanol and 490 µL of water in an Eppendorf vial, respectively. The mixture was shaken with a vortex shaker (600 rpm) for 10 min and centrifuged (6000 rpm) for 5 min. Then, 100 µL from the octanol phase and 1 μL from the aqueous phase were pipetted into vials, and the aqueous aliquot was diluted to 100 µL with water in order to minimize the effects of sample geometry and the high difference of activity concentrations in the two solvents. The radioactivity of the fractions was determined with a gamma counter. The measurements were performed in triplicates for both labeled compounds.
# [2] = Stability of labeled complexes in mouse plasma, Na2H2EDTA and oxalic acid by radio-HPLC; type: in vitro ADME
# Experimental: as §1
# A 10 µL volume of [^68Ga]Ga(DO3AM-NI) and [^44Sc]Sc(DO3AM-NI) solution was added to the solution of 90 µL of mouse plasma, Na2H2EDTA (0.01 M) and oxalic acid (0.01 M), respectively. Samples were analyzed by radio-HPLC at the beginning and after 60, 120 and 240 min. The analytical conditions were the same as detailed for the quality control of the labeled compound.
# [3] = Ex vivo biodistribution in healthy control SCID mice; parameters: species or system CB17 SCID mice; conditions: mean ± SD
# Experimental: Ex vivo biodistribution studies were carried out 90 min and 240 min after intravenous injection of ^44Sc- or ^68Ga-labeled DO3AM-NI, and the accumulated activities of the organs and tissues were determined using a gamma counter. By the quantitative analysis of the ex vivo data, significant differences were found between the %ID/g values when ^44Sc- and ^68Ga-labeled DO3AM-NI accumulations were compared. […] In contrast, e.g., [^18F]fluorine- [28], [^131I]iodine- [29], [^99mTc]technetium- [30] and [^64Cu]copper-labeled nitroimidazole-based probes, due to their chemical properties, were mainly metabolized via the liver, and the large abdominal accumulation impaired the evaluation of abdominal tumors in the PET images. The ^44Sc- and ^68Ga-labeled nitroimidazole derivatives had more favorable properties in terms of the reporting and evaluation of PET images and due to their rapid elimination through the urinary system.
# (§2) For the determination of ex vivo biodistribution of the radiotracers, control and KB tumor-bearing mice were injected intravenously with 8.42 ± 0.38 MBq of ^68Ga- or ^44Sc-labeled DO3AM-NI via the tail vein. Mice were euthanized with 5% isoflurane 90 min or 4 h after intravenous radiotracer injection. Three tissue samples were taken from the selected organs, and their weight and radioactivity were measured with a calibrated gamma counter (Perkin-Elmer Packard Cobra, Waltham, MA, USA). The radiotracer uptake was expressed as %ID/g tissue.
# KB tumors [4] = assay: In vivo PET/MRI imaging of KB tumor-bearing mice, quantitative SUV analysis; parameters: species or system CB17 SCID mice; conditions: 240 min after injection
# Experimental: The tumor-specific accumulation of [^44Sc]Sc(DO3AM-NI) and [^68Ga]Ga(DO3AM-NI) was investigated by PET/MRI imaging 90 and 240 min after radiotracer injection using KB tumor-bearing mice. The subcutaneously growing KB tumors were clearly visualized using [^44Sc]Sc(DO3AM-NI) 90 and 240 min post injection with relatively higher SUVmean and SUVmax values (SUVmean: 1.46 ± 0.32 and SUVmax: 2.35 ± 0.47 at 90 min and SUVmean: 0.67 ± 0.03 and SUVmax: 1.55 ± 0.28 at 240 min). Lower accumulation was found in the same KB tumors by using the ^68Ga-labeled molecule (SUVmean: 0.79 ± 0.10, SUVmax: 1.94 ± 0.40 at 90 min and SUVmean: 0.51 ± 0.09 and SUVmax: 1.23 ± 0.10 at 240 min); however, this difference between the radiotracers was not significant (Figure 4E). […] In contrast, no significant differences were found between the T/M SUV values of the two radiotracers 90 min post injection (Figure 4F).
# (§3) For tumor induction, SCID mice were injected with 5x10^6 KB tumor cells in 0.9% NaCl (100 µL) subcutaneously into the left shoulder area. The tumor growth was assessed by caliper measurements, and tumor size was calculated using the following formula: (largest diameter × smallest diameter^2)/2. In vivo experiments were carried out approximately 13 ± 1 days after […] injection of tumor cells at the tumor volume of approximately 110 mm^3.
# For in vivo imaging studies, healthy control and KB tumor-bearing CB17 SCID mice were injected with 8.42 ± 0.38 MBq of ^68Ga- or ^44Sc-labeled DO3AM-NI via the lateral tail vein 13 ± 1 days after the inoculation of KB tumor cells. Then, 65 and 225 min after radiotracer injection, mice were anaesthetized by 3% isoflurane (Forane) with a dedicated small animal anesthesia device and whole-body T1-weighted MRI scans were performed (3D GRE EXT multi-FOV; TR/TE 15/2 ms; phase: 100; FOV 60 mm; NEX 2) using the preclinical nanoScan PET/MRI system with 1 Tesla magnetic field (Mediso Ltd., Hungary). After MRI imaging, 20 min static whole-body PET scans were acquired (90 min and 4 h after radiotracer injection).
# Quantitative radiotracer uptake was expressed in terms of standardized uptake value (SUV), SUV = [VOI activity (Bq/mL)]/[injected activity (Bq)/animal weight (g)], assuming a density of 1 g/mL. Volumes of interest (VOI) were manually drawn around the edge of the organ or tumor activity using the InterView™ FUSION (Mediso Ltd., Hungary) image analysis software. Tumor-to-muscle (T/M) ratios were computed as the ratio between the activity in the tumor VOI and in the background (muscle) VOI. Skeletal muscles of the right shoulder area were used as background.
# KB tumors [5] = assay: Ex vivo biodistribution in KB tumor xenografts; parameters: species or system CB17 SCID mice; conditions: for KB tumor uptake: 13 ± 1 days after subcutaneous tumor induction, n = 5, mean ± SD
# Experimental: For the assessment of the accumulation in the tumors of [^44Sc]Sc(DO3AM-NI) and [^68Ga]Ga(DO3AM-NI), ex vivo biodistribution studies were performed 90 and 240 min post injection using KB tumor xenografts.
# as §3, §2
structure (smiles),measurement,setting,value
O=C([O-])CN1CCN(CC(=O)[O-])CCN(CC(=O)NCCn2ccnc2[N+](=O)[O-])CCN(CC(=O)[O-])CC1.[44Sc+3] [[^44Sc]Sc(DO3AM-NI)],octanol/water partition coefficient (logP),[1],−2.59
same,RCP after 240 min,[2]; Na2H2EDTA (0.01 M),above 93%
same,RCP after 240 min,[2]; mouse plasma,above 93%
same,RCP after 240 min,[2]; oxalic acid (0.01 M),above 93%
same,Blood uptake,[3]; 90 min after i.v. injection,0.08 ± 0.01 %ID/g
same,Fat uptake,[3]; 90 min after i.v. injection,0.01 ± 0.001 %ID/g
same,Heart uptake,[3]; 90 min after i.v. injection,0.04 ± 0.01 %ID/g
same,Kidney uptake,[3]; 90 min after i.v. injection,1.17 ± 0.41 %ID/g
same,Large intestine uptake,[3]; 90 min after i.v. injection,0.05 ± 0.01 %ID/g
same,Liver uptake,[3]; 90 min after i.v. injection,0.14 ± 0.09 %ID/g
same,Lung uptake,[3]; 90 min after i.v. injection,0.10 ± 0.04 %ID/g
same,Muscle uptake,[3]; 90 min after i.v. injection,0.01 ± 0.01 %ID/g
same,Small intestine uptake,[3]; 90 min after i.v. injection,0.10 ± 0.05 %ID/g
same,Spleen uptake,[3]; 90 min after i.v. injection,0.07 ± 0.02 %ID/g
same,Stomach uptake,[3]; 90 min after i.v. injection,0.09 ± 0.03 %ID/g
same,Urine uptake,[3]; 90 min after i.v. injection,57.78 ± 12.41 %ID/g
same,Blood uptake,[3]; 240 min after i.v. injection,0.03 ± 0.01 %ID/g
same,Fat uptake,[3]; 240 min after i.v. injection,0.01 ± 0.01 %ID/g
same,Heart uptake,[3]; 240 min after i.v. injection,0.03 ± 0.01 %ID/g
same,Kidney uptake,[3]; 240 min after i.v. injection,0.89 ± 0.23 %ID/g
same,Large intestine uptake,[3]; 240 min after i.v. injection,0.04 ± 0.004 %ID/g
same,Liver uptake,[3]; 240 min after i.v. injection,0.20 ± 0.04 %ID/g
same,Lung uptake,[3]; 240 min after i.v. injection,0.04 ± 0.003 %ID/g
same,Muscle uptake,[3]; 240 min after i.v. injection,0.007 ± 0.002 %ID/g
same,Small intestine uptake,[3]; 240 min after i.v. injection,0.03 ± 0.01 %ID/g
same,Spleen uptake,[3]; 240 min after i.v. injection,0.06 ± 0.01 %ID/g
same,Stomach uptake,[3]; 240 min after i.v. injection,0.03 ± 0.005 %ID/g
same,Urine uptake,[3]; 240 min after i.v. injection,6.23 ± 1.25 %ID/g
same,tumor-to-muscle ratio T/M SUVmax,KB tumors [4],129.68 ± 26.11
same,tumor-to-muscle ratio T/M SUVmean,KB tumors [4],182.67 ± 23.50
same,T/M (tumor-to-muscle ratio),KB tumors [5]; 90 min after injection,79.30 ± 5.26
same,KB tumor uptake,KB tumors [5]; 90 min after injection,0.82 ± 0.11 %ID/g
same,T/M (tumor-to-muscle ratio),KB tumors [5]; 240 min after injection,99.35 ± 5.14
same,KB tumor uptake,KB tumors [5]; 240 min after injection,0.70 ± 0.14 %ID/g
same,T/M ratio relative to the T/M ratio of [^68Ga]Ga(DO3AM-NI),KB tumors [5]; at each time point (90 and 240 min),10–15 fold
